Results reported in US20120100361A1, “ANTISEPTIC COMPOSITION FOR ENGINEERING WOOD PRODUCTION, AND ENGINEERING WOOD” (SDS BIOTECH K.K., priority 2009, published 2012).

Columns and labels:
[1] = Test for miscibility with a phenol resin glue; type: physicochemical; parameters: key to Phenol resin status after 60 minutes: ∘: No change; x: Obvious increase in the viscosity was seen and it seems impossible to apply the composition onto the veneer sheet; details: 10% (w/w) solution added to phenol resin glue Deernol D-117 kneaded product; viscosity change visually observed for 60 minutes
Description: The following compounds, which are known to have wood preservative activity, are dissolved in methyl ethylene triglycol to reach a concentration of 10% (w/w) to thereby obtain a solution of each of the compounds.
1000 g of phenol resin-based glue Deernol D-117 (manufactured by Oshika Corporation), 70 g of wheat flour and 100 g of calcium carbonate were mixed and well kneaded. Each of the solutions of Example 1 and Comparative Example 1 to 25 was added to 17 g of the kneaded product and mixed well together. The viscosity change of the glue was visually observed for 60 minutes. […] Although a number of documents listed as the prior art documents and the like teach that quaternary ammonium compounds can be applied to the glue line treatment, it is clear that those compounds have a problem for practical use (Comparative Examples 3 and 4). On the other hand, it was confirmed that the other compounds including that of Example has no problem from the viewpoint of compatibility.

Fomitopsis palustris [2] = experiment: Test for antiseptic effects of preservative plywood (JIS K1571:2004); type: cell-based; details: for average rate of decrease in weight: plywood, urea melamine resin, Fomitopsis palustris
Description: (§1) 1000 g of urea melamine resin (PWP-60, manufactured by Oshika Corporation) was added to 180 g of wheat flour and fully kneaded to thereby obtain a kneaded product. 8 g of ammonium chloride was added as a hardening agent to the kneaded product, and a solution of each of the compounds of Example 1 and Comparative Example 1, 2 and 5 to 25 was further added thereto so that the final concentrations of the compound in the wood become 150, 100, 50 and 25 g/m^3 and kneaded. 18 g of the above kneaded product was applied onto each of the bonding plane of the three red lauan veneer sheets having an area of 30 x 30 cm and thickness of 0.85 mm/2.4 mm/0.85 mm. After bonding the three sheets to each other, the sheets were subjected to cold pressing at room temperature for 20 minutes and the thermal pressure of 120° C. (10 kgf/cm^2) was applied to the sheets for two minutes to obtain the target plywood. Each of the prepared plywood was processed into the size of 20×20×4.1 mm to serve as a test sample.
(§2) The samples of the plywood and LVL prepared in Preparation Examples 2 and 3 were evaluated by the test for antiseptic effects for the drug pressure treatment according to JIS K1571:2004. The weather resistance operation and the test method for the antiseptic effect were performed according to the above test method.

Trametes versicolor [3] = experiment: as above; type: cell-based; details: plywood, urea melamine resin, Trametes versicolor
Description: as §1, §2

Fomitopsis palustris [4] = experiment: Test for antiseptic effects of preservative LVL (JIS K1571:2004); type: cell-based; details: phenol resin
Description: (§3) 1000 g of the phenol resin-based glue Deernol D-117 (manufactured by Oshika Corporation), 70 g of wheat flour and 100 g of calcium carbonate were mixed and well kneaded. A solution of each of the compounds of Example 1 and Comparative Example 1, 2 and 5 to 25 was added to the kneaded product so that the final concentrations of the compound in the wood become 150, 100, 50 and 25 g/m^3 and further kneaded. 18 g of the above kneaded product was applied onto each of the surface of glue line of the three Radiata pine veneer sheets having an area of 30 x 30 cm and thickness of 3 mm. After bonding the three sheets to each other, the sheets were subjected to cold pressing at room temperature for 20 minutes and the thermal pressure of 140° C. (10 kgf/cm^2) was applied to the sheets for two minutes to obtain the target LVL. Each of the prepared LVL was processed into the size of 20×20×9 mm to serve as a test sample.
as §2

Trametes versicolor [5] = experiment: as above; type: cell-based; details: phenol resin
Description: as §3, §2

fungus cellar soil-bed [6] = experiment: Fungus cellar soil-bed test of preservative plywood (JIS K1571:2004); details: for Grade average of the decay damage of five test samples: plywood, six months, 25° C., grade 0 sound condition to 5 out of shape due to the decay
Description: as §1
The preservative plywood was prepared in the same manner in Preparation Example 2. Each of the prepared plywood was processed into the size of 8.9 x 8.9×100 mm to serve as a test sample.
(§4) The samples of the plywood and LVL prepared in Preparation Examples 4 and 5 were evaluated by the fungus cellar soil-bed test according to JIS K1571:2004. The weather resistance operation and the test method for the antiseptic effect were performed according to the above test method. The test was carried out for six months setting the test temperature to 25° C. (because the grade average of the decay damage of the non-treated test samples exceeded 2.5 in six months). […] The effect in the glue line treatment was actually investigated with respect to a number of existing antiseptics, and it was confirmed that only epoxyconazole is suitable for the glue line treatment at a low concentration.

fungus cellar soil-bed [7] = experiment: Fungus cellar soil-bed test of preservative LVL (JIS K1571:2004); details: 25° C., grade 0 sound condition to 5 out of shape due to the decay
Description: as §3
The preservative LVL was prepared in the same manner in Preparation Example 3. Each of the prepared LVL was processed into the size of 9×9×100 mm to serve as a test sample.
as §4

[8] = treated amount 25 g/m^3, six months
[9] = treated amount 50 g/m^3, six months
[10] = treated amount 100 g/m^3, six months
[11] = treated amount 150 g/m^3, six months

Compound | Phenol resin status after 60 minutes [1] | average rate of decrease in weight (Fomitopsis palustris [2]; treated amount 25 g/m^3) | average rate of decrease in weight (Fomitopsis palustris [2]; treated amount 50 g/m^3) | average rate of decrease in weight (Fomitopsis palustris [2]; treated amount 100 g/m^3) | average rate of decrease in weight (Fomitopsis palustris [2]; treated amount 150 g/m^3) | average rate of decrease in weight (Trametes versicolor [3]; treated amount 25 g/m^3) | average rate of decrease in weight (Trametes versicolor [3]; treated amount 50 g/m^3) | average rate of decrease in weight (Trametes versicolor [3]; treated amount 100 g/m^3) | average rate of decrease in weight (Trametes versicolor [3]; treated amount 150 g/m^3) | average rate of decrease in weight (Fomitopsis palustris [4]; treated amount 25 g/m^3) | average rate of decrease in weight (Fomitopsis palustris [4]; treated amount 50 g/m^3) | average rate of decrease in weight (Fomitopsis palustris [4]; treated amount 100 g/m^3) | average rate of decrease in weight (Fomitopsis palustris [4]; treated amount 150 g/m^3) | average rate of decrease in weight (Trametes versicolor [5]; treated amount 25 g/m^3) | average rate of decrease in weight (Trametes versicolor [5]; treated amount 50 g/m^3) | average rate of decrease in weight (Trametes versicolor [5]; treated amount 100 g/m^3) | average rate of decrease in weight (Trametes versicolor [5]; treated amount 150 g/m^3) | Grade average of the decay damage of five test samples (fungus cellar soil-bed [6]; treated amount 25 g/m^3) | Grade average of the decay damage of five test samples (fungus cellar soil-bed [6]; treated amount 50 g/m^3) | Grade average of the decay damage of five test samples (fungus cellar soil-bed [6]; treated amount 100 g/m^3) | also measured
Fc1ccc([C@]2(Cn3cncn3)O[C@H]2c2ccccc2Cl)cc1 (racemic) [Example 1, Epoxyconazole] | ∘ | ◯ (The average rate of decrease in weight was less than 3%.) | ◯ (The average rate of decrease in weight was less than 3%.) | ◯ (The average rate of decrease in weight was less than 3%.) | ◯ (The average rate of decrease in weight was less than 3%.) | ◯ (The average rate of decrease in weight was less than 3%.) | ◯ (The average rate of decrease in weight was less than 3%.) | ◯ (The average rate of decrease in weight was less than 3%.) | ◯ (The average rate of decrease in weight was less than 3%.) | ◯ (The average rate of decrease in weight was less than 3%.) | ◯ (The average rate of decrease in weight was less than 3%.) | ◯ (The average rate of decrease in weight was less than 3%.) | ◯ (The average rate of decrease in weight was less than 3%.) | ◯ (The average rate of decrease in weight was less than 3%.) | ◯ (The average rate of decrease in weight was less than 3%.) | ◯ (The average rate of decrease in weight was less than 3%.) | ◯ (The average rate of decrease in weight was less than 3%.) | 0.2 | 0 | 0 | amount showing sufficient antiseptic effect (Fomitopsis palustris [2]; glue line method, plywood and LVL, both fungi, summary of Tables 2 and 3): 25 to 50 g/m^3; amount showing sufficient antiseptic effect (fungus cellar soil-bed [6]; fungus cellar soil-bed test, plywood and LVL, text summary of Tables 4 and 5): 25 to 50 g/m^3; Grade average of the decay damage of five test samples (fungus cellar soil-bed [6]; treated amount 150 g/m^3): 0; Grade average of the decay damage of five test samples (fungus cellar soil-bed [7]; [8]): 0.4; Grade average of the decay damage of five test samples (fungus cellar soil-bed [7]; [9]): 0; Grade average of the decay damage of five test samples (fungus cellar soil-bed [7]; [10]): 0; Grade average of the decay damage of five test samples (fungus cellar soil-bed [7]; [11]): 0
CO/C=C(/C(=O)OC)c1ccccc1Oc1cc(Oc2ccccc2C#N)ncn1 [Comparative Example 21, azoxystrobin] | ∘ | X (The average rate of decrease in weight was 3% or more.) | X (The average rate of decrease in weight was 3% or more.) | X (The average rate of decrease in weight was 3% or more.) | X (The average rate of decrease in weight was 3% or more.) | X (The average rate of decrease in weight was 3% or more.) | X (The average rate of decrease in weight was 3% or more.) | X (The average rate of decrease in weight was 3% or more.) | X (The average rate of decrease in weight was 3% or more.) | X (The average rate of decrease in weight was 3% or more.) | X (The average rate of decrease in weight was 3% or more.) | X (The average rate of decrease in weight was 3% or more.) | X (The average rate of decrease in weight was 3% or more.) | X (The average rate of decrease in weight was 3% or more.) | X (The average rate of decrease in weight was 3% or more.) | X (The average rate of decrease in weight was 3% or more.) | X (The average rate of decrease in weight was 3% or more.) | 3.0 | 3.0 | 3.0 | Grade average of the decay damage of five test samples (fungus cellar soil-bed [6]; treated amount 150 g/m^3): 2.8; Grade average of the decay damage of five test samples (fungus cellar soil-bed [7]; [8]): 3.0; Grade average of the decay damage of five test samples (fungus cellar soil-bed [7]; [9]): 3.6; Grade average of the decay damage of five test samples (fungus cellar soil-bed [7]; [10]): 3.4; Grade average of the decay damage of five test samples (fungus cellar soil-bed [7]; [11]): 2.8
